Measured values as given in patent publication US20130123201A1, “MODULATION OF CYTOKINE-INDUCED CHRONIC INFLAMMATORY RESPONSES” (UNIVERSITY OF MANITOBA, priority 2010, published 2013).

What was measured:
Format in all cases: cell-based
[1] = tested on: Human macrophage-like THP-1 cells; test: qRT-PCR of cytokine-induced gene expression in THP-1 cells
Experimental: Quantitative real-time PCR (qRT-PCR): Human FLS or monocytic THP-1 cells were stimulated with indicated stimulants for 4 hr. RNA was isolated and analyzed for gene expression by qRT-PCR using SuperScript III Platinum Two-Step qRT-PCR Kit with SYBR Green (Invitrogen), according to the manufacturer's instructions, in the ABI PRISM 7000 sequence detection system (Applied Biosystems). Fold changes were calculated using the comparative Ct method, after normalization using 18S rRNA primers.
Quantitative real-time PCR (qRT-PCR): Human FLS or macrophage-like THP-1 cells were stimulated with indicated stimulants for 4 hr. RNA was isolated and analyzed for gene expression by qRT-PCR using SuperScript III Platinum Two-Step qRT-PCR Kit with SYBR Green (Invitrogen), according to the manufacturer's instructions, in the ABI PRISM 7000 sequence detection system (Applied Biosystems). Fold changes were calculated using the comparative Ct method, after normalization using 18S rRNA primers.

human PBMC = test: ELISA of IL-32-induced TNF-α and IL-1β production in PBMC (ex-vivo)
Description: In order to confirm these activities in a physiologically relevant system, we evaluated the impact of the peptide in an ex-vivo assay using human PBMC, because cells recruited from the circulation are a major component of inflammatory infiltrates. Venous blood was collected from healthy volunteers with informed consent in accordance to a protocol approved by the Institutional Review Board at the University of Manitoba. PBMC was isolated from blood following the teaching of Mookherjee et al. (2009, Systems biology evaluation of immune responses induced by human host defence peptide LL-37 in mononuclear cells. Mol. Biosyst. 5:483-496). PBMC were stimulated with chronic inflammatory cytokine IL-32 (20 ng/ml) in the presence and absence of 5 μM of peptides, LL-37 and its derivatives (Table 7) for 24 hr. The tissue culture supernatants were monitored for the production of pro-inflammatory cytokines TNF-α and IL-1β by ELISA. […] Results shown are an average of four independent biological experiments performed with cells isolated from blood of four different donors ±standard error.

[2] = tested on: Human macrophage-like THP-1 cells; test: ELISA of cytokine/chemokine production in THP-1 tissue culture supernatants; settings: both monocytic THP-1 and human FLS cells, data not shown
[3] = tested on: Human fibroblast-like synovial (FLS) cells; test: qRT-PCR of cytokine-induced gene expression in FLS cells; settings: some of the responses
Experimental: Cell culture and isolation: Human fibroblast-like synovial (FLS) cells were isolated from synovial tissues obtained from patients […]. Briefly, the tissues were digested with 1 mg/ml collagenase and 0.05 mg/ml hyaluronidase (both obtained from Sigma; Oakville, ON, Canada) in Hanks' balanced salt solution (Gibco) for 1-2 hours at 37° C. The cells were cultured in DMEM media (Gibco) supplemented with sodium pyruvate and non-essential amino acids (referred to as complete DMEM media henceforth), containing […] in a humidified incubator at 37° C. and 10% CO2. […] Cellular cytotoxicity was evaluated after 24 hr stimulation with the various stimulants used in this study by monitoring the release of lactate dehydrogenase (LDH) employing a colorimetric detection kit (Roche Diagnostics, Laval, QC, Canada).
Quantitative real-time PCR (qRT-PCR): Human FLS or monocytic THP-1 cells were stimulated with indicated stimulants for 4 hr. RNA was isolated and analyzed for gene expression by qRT-PCR using SuperScript III Platinum Two-Step qRT-PCR Kit with SYBR Green (Invitrogen), according to the manufacturer's instructions, in the ABI PRISM 7000 sequence detection system (Applied Biosystems). Fold changes were calculated using the comparative Ct method, after normalization using 18S rRNA primers. […]

[4] = tested on: Human macrophage-like THP-1 cells; test: ELISA of cytokine/chemokine production in THP-1 tissue culture supernatants
Experimental: ELISA immunoassay: Tissue culture supernatants were centrifuged at 1500× g for 5-7 min to obtain cell-free samples and the aliquots were stored at −20° C. until further use. Production of chemokine Gro-α was monitored in the tissue culture supernatants by ELISA employing human Gro-α DuoSet (R&D Systems Inc.) as per the manufacturer's instructions. Production of cytokine TNF-α was monitored in the tissue culture supernatants using specific antibody pairs from eBioscience, Inc., and production of IL-8 was monitored using specific antibody pairs from R&D Systems, Inc., as per the manufacturer's instructions. The concentration of the cytokines or chemokines in the tissue culture supernatants was evaluated by establishing a standard curve with serial dilutions of the recombinant human cytokines or chemokines as required.
ELISA immunoassay: Tissue culture supernatants were centrifuged at 1500× g for 5-7 min to obtain cell-free samples and the aliquots were stored at −20° C. until further use. Production of chemokine Gro-α was monitored in the tissue culture supernatants by ELISA employing human Gro-α DuoSet (R&D Systems Inc.) per the manufacturer's instructions. Production of cytokine TNF-α was monitored in the tissue culture supernatants using specific antibody pairs from eBioscience, Inc., and production of IL-8 was monitored using specific antibody pairs from R&D Systems, Inc., per the manufacturers' instructions. The concentrations of the cytokines or chemokines in the tissue culture supernatants were evaluated by establishing a standard curve with serial dilutions of the recombinant human cytokines or chemokines as required.
Impact of cationic peptide LL-37 and its synthetic derivatives on IL-32-induced protein production: Human macrophage-like THP-1 cells were stimulated with IL-32 (20 ng/mL) in the presence and absence of cationic peptide LL-37, tissues culture supernatants were monitored for the production of pro-inflammatory cytokines TNF-α and IL-1β, and chemokines after 24 hr of stimulation. […] As LL-37 suppressed IL-32-mediated pro-inflammatory responses, we also evaluated the impact of LL-37 derived synthetic peptides. […] No studies to data have explored the impact of these peptides in the context of chronic inflammation. […] This provides the data that supports further investigation of these peptide candidates as potential therapeutics for diseases characterized by chronic inflammation.

[5] = THP-1 cells, in the presence of the peptide
[6] = THP-1 cells, in the presence of the peptide, p<0.01
[7] = macrophage-like THP-1 cells, IL-32 20 ng/mL, 24 hr

Substance: LL-37: Human cathelicidin cationic host defence peptide, SEQ ID NO: 21, LLGDFFRKSKEKIGKEFKRIVQRIKDFLRNLVPRTES
- Suppression of IL-32-induced IL-8 (CXCL8) expression [1, 5]: 30-40%
- Suppression of IL-32-induced IL-23 expression [1, 5]: 30-40%
- Suppression of IL-32-induced NF-κB1A expression [1, 5]: 30-40%
- Suppression of IL-32-induced Gro-α (CXCL1) gene expression [1, 6]: > 50%
- Suppression of IL-32-induced IL-6 gene expression [1, 6]: > 50%
- Suppression of IL-32-induced TNF-α gene expression [1, 6]: > 50%
- Effect on IL-17-induced expression of pro-inflammatory genes or chemokine genes ([1]; human monocytic cells / macrophages, data not shown): not altered
- Effect on IL-32-induced IL-1β production (human PBMC; human PBMC, IL-32 20 ng/ml, 5 μM peptide, 24 hr): neutralized
- Effect on IL-32-induced TNF-α production (human PBMC; human PBMC, IL-32 20 ng/ml, 5 μM peptide, 24 hr, p<0.05): neutralized
- Effect on IL-32 induced pro-inflammatory protein production (FIG. 21 legend) (human PBMC; peripheral blood mononuclear cells): suppression
- Effect on IL-17-induced chemokine production [2]: not significantly altered (or modestly enhanced)
- Effect on IL-17-induced transcriptional responses [3]: significantly enhanced
- Suppression of IL-32-induced TNF-α production ([4]; THP-1 monocytic cells, ELISA after 24 or 48 hr): > 30%
- Suppression of IL-32-induced chemokine Gro-α production ([4]; THP-1 monocytic cells, ELISA after 24 or 48 hr, p<0.05): 12±4%
- Effect on IL-32-induced IL-1β production [4, 7]: significantly suppressed
- Effect on IL-32-induced TNF-α production [4, 7]: significantly suppressed
- Effect on IL-32-induced chemokine production (IL-8, GROα) [4, 7]: not altered
